In patent publication US20100331310A1, “BICYCLOAMINE DERIVATIVES” (priority 2008, published 2010):
Where a name gives a salt, the structure may show the parent alone.

These compounds were tested against T1, human Nav1.8 (Homo sapiens, UniProt Q9Y5Y9) (assay: Membrane potential increase-inhibitory action on TTX-resistant Na channels in cells expressing human Nav1.8 gene (deltamethrin stimulation)). Details: not given.
T1 construct: expressed in transfected cells
T1 sequence (Q9Y5Y9 whole entry): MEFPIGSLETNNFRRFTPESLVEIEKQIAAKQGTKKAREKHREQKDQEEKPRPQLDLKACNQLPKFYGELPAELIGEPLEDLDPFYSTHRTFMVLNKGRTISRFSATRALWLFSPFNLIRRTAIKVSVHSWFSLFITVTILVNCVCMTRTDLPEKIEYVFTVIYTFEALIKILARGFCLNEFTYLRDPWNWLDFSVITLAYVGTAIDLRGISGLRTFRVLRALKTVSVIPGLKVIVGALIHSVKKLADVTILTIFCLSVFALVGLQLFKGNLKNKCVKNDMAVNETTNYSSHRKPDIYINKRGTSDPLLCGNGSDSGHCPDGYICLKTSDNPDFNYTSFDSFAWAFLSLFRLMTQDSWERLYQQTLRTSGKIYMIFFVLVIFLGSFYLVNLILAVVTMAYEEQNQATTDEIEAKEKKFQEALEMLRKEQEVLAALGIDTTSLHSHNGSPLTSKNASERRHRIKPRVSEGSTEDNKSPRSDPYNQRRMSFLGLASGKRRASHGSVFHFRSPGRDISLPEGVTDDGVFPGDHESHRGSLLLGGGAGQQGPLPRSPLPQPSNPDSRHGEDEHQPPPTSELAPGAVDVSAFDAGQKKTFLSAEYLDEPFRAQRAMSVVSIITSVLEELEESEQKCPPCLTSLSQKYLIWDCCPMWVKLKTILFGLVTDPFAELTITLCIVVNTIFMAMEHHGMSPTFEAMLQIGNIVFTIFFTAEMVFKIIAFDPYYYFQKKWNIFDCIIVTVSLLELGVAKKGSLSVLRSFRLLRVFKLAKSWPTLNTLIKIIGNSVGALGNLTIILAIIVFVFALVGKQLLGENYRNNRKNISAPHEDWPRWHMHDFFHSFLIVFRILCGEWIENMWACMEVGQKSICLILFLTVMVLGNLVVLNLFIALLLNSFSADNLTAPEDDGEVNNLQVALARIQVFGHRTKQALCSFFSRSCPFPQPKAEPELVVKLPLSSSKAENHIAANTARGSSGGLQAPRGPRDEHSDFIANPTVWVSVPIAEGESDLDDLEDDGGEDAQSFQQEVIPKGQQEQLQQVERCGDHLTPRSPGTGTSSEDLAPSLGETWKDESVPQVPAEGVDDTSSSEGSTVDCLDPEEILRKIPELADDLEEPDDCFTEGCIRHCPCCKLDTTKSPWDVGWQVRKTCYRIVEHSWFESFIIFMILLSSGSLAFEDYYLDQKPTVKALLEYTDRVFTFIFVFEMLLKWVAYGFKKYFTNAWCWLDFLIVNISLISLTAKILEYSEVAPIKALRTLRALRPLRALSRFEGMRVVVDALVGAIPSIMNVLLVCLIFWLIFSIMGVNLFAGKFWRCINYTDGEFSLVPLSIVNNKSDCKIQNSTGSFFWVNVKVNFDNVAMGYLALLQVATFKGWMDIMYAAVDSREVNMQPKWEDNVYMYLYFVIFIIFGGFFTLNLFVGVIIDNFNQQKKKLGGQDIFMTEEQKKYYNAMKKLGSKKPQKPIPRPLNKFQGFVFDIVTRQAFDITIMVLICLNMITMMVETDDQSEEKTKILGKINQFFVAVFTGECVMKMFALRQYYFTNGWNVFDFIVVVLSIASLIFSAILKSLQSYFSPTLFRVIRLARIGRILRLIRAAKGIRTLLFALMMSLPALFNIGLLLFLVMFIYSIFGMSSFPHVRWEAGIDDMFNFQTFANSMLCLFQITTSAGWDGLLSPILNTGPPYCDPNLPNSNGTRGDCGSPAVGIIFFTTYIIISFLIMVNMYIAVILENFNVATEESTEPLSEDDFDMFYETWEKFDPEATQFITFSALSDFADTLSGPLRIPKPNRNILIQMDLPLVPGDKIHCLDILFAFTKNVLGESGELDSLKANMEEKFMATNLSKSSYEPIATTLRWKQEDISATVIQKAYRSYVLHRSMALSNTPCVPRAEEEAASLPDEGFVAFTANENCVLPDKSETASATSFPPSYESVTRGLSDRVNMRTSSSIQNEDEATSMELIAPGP
Assay type: cell-based
Experimental: A cell line expressing human Nav1.8 gene was used to evaluate the pharmacological effects of compounds of the invention.
1. A membrane potential-sensitive dye containing TTX (final concentration: 0.25 μM) was added to cells expressing human Nav1.8, prior to incubation at 37° C. for 30-60 minutes. 2. The test compound was added to the cells, and the mixture was stationed for 15-30 minutes at room temperature while shielded from light. 3. Deltamethrin (final concentration: 50 μM), a Nav1.8 channel stimulant, was added, and the change in fluorescence intensity due to increased membrane potential was measured.
The Nav1.8 channel inhibition of the test compound was determined by the following equation.
`Cc1nc(=O)n(C[C@H](F)CN2[C@@H]3CC[C@H]2C[C@@H](OCc2cccc(F)c2)C3)c(=O)n1C` [Example 15, (Endo)-3-{(R)-2-fluoro-3-[3-(3-fluorobenzyloxy)-8-azabicyclo[3.2.1]oct-8-yl]propyl}-1,6-dimethyl-1H-[1,3,5]triazine-2,4-dione oxalate] gave an IC50 of 2.4 µM. With `Cn1c(=O)c2c(ncn2CCCN2[C@@H]3CC[C@H]2C[C@@H](OCc2ccccc2F)C3)n(C)c1=O` [Example 182, (Endo)-7-{3-[3-(2-fluorobenzyloxy)-8-azabicyclo[3.2.1]oct-8-yl]propyl}-1,3-dimethyl-3,7-dihydro-purine-2,6-dione] the IC50 was 6.7 µM. `CCc1ccccc1COC1CC2CCC(C1)N2C[C@H](O)Cn1nc(C)n(CC)c1=O` (stereo partly drawn) [Example 31, (Endo)-4-ethyl-2-{(S)-3-[3-(2-ethylbenzyloxy)-8-azabicyclo[3.2.1]oct-8-yl]-2-hydroxypropyl}-5-methyl-2,4-dihydro[1,2,4]triazol-3-one] showed an IC50 of 1 µM. `Cc1nn2c(=O)n(C[C@H](F)CN3[C@@H]4CC[C@H]3C[C@@H](OCc3ccc(F)c(F)c3)C4)c(=O)nc2n1C` [Example 102, (Endo)-6-{(R)-3-[3-(3,4-di-fluorobenzyloxy)-8-azabicyclo[3.2.1]oct-8-yl]-2-fluoropropyl}-2,3-dimethyl-3H-[1,2,4]triazole[1,5-a][1,3,5]triazine-5,7-dione] gave an IC50 of 2.8 µM. `Cc1nn(CC(O)CN2[C@@H]3CC[C@H]2C[C@@H](OCc2ccccc2F)C3)c(=O)n1-c1nccs1` (stereo partly drawn) [Example 48, (Endo)-2-{3-[3-(2-fluorobenzyloxy)-8-azabicyclo[3.2.1]oct-8-yl]-2-hydroxypropyl}-5-methyl-4-thiazol-2-yl-2,4-dihydro[1,2,4]triazol-3-one oxalate] was tested, and the IC50 was 0.2 µM. Compound `CCn1cnn(C[C@@H](O)CN2[C@@H]3CC[C@H]2C[C@@H](OCc2c(C)cccc2F)C3)c1=O` [Example 35, (Endo)-4-ethyl-2-{(S)-3-[3-(2-fluoro-6-methylbenzyloxy)-8-azabicyclo[3.2.1]oct-8-yl]-2-hydroxypropyl}-2,4-dihydro[1,2,4]triazol-3-one] has an IC50 of 14 µM. `Cc1nn(C[C@H](F)CN2C3CCC2CC(OCc2cccs2)C3)c(=O)n1C` (stereo partly drawn) [Example 7, (Endo)-2-{(R)-2-fluoro-3-[3-(thiophen-2-ylmethoxy)-8-azabicyclo[3.2.1]oct-8-yl]propyl}-4,5-dimethyl-2,4-dihydro[1,2,4]triazol-3-one] was tested, and the IC50 was 4.3 µM. Work on `Cc1cccc(F)c1CO[C@H]1C[C@H]2CC[C@@H](C1)N2CCCn1c(=O)nc2n(c1=O)CCCCC2` [Example 136, (Endo)-3-{3-[3-(2-fluoro-6-methylbenzyloxy)-8-azabicyclo[3.2.1]oct-8-yl]propyl}-7,8,9,10-tetrahydro-6H-[1,3,5]triazino[1,2-a]azepine-2,4-dione oxalate] yielded an IC50 of 4.9 µM. `Cc1nc2c(c(=O)n1CCN1[C@@H]3CC[C@H]1C[C@@H](OCc1ccccc1F)C3)CCCC2` [Example 180, (Endo)-3-{2-[3-(2-fluorobenzyloxy)-8-azabicyclo[3.2.1]oct-8-yl]ethyl}-2-methyl-5,6,7,8-tetrahydro-3H-quinazolin-4-one oxalate] was tested, and the IC50 was 4.8 µM. With `CCn1c(CCCN2[C@@H]3CC[C@H]2C[C@@H](OCc2ccccc2F)C3)nn(C)c1=O` [Example 169, (Endo)-4-ethyl-5-{3-[3-(2-fluorobenzyloxy)-8-azabicyclo[3.2.1]oct-8-yl]propyl}-2-methyl-2,4-dihydro[1,2,4]triazol-3-one] the IC50 was 12 µM. `O=C(CN1[C@@H]2CC[C@H]1C[C@@H](OCc1ccccc1F)C2)Cn1nc2ccccn2c1=O` [Example 158, (Endo)-2-{3-[3-(2-fluorobenzyloxy)-8-azabicyclo[3.2.1]oct-8-yl]-2-oxopropyl}-2H-[1,2,4]triazolo[4,3-a]pyridin-3-one] gave an IC50 of 0.93 µM. `Cc1ccccc1OC[C@@H]1C[C@H]2CC[C@@H](C1)N2CCCCn1nc2ccccn2c1=O` [Example 153, (Exo)-2-{4-[3-(2-methylphenoxymethyl)-8-azabicyclo[3.2.1]oct-8-yl]butyl}-2H-[1,2,4]triazolo[4,3-a]pyridin-3-one oxalate] gave an IC50 of 3.7 µM. In the case of `CCn1c(C)nc(=O)n(CCCN2[C@@H]3CC[C@H]2C[C@@H](OCc2c(F)cccc2-c2ccccc2)C3)c1=O` [Example 91, (Endo)-1-ethyl-3-{3-[3-(3-fluorobiphenyl-2-ylmethoxy)-8-azabicyclo[3.2.1]oct-8-yl]propyl}-6-methyl-1H-[1,3,5]triazine-2,4-dione oxalate], the IC50 is reported as 0.17 µM. `O=c1n(CC(O)CN2[C@@H]3CC[C@H]2C[C@@H](OCc2ccccc2F)C3)nnn1-c1ccccc1` (stereo partly drawn) [Example 190, (Endo)-1-{3-[3-(2-fluorobenzyloxy)-8-azabicyclo[3.2.1]oct-8-yl]-2-hydroxypropyl}-4-phenyl-1,4-dihydro-tetrazol-5-one] was tested, and the IC50 was 0.03 µM. `Cn1c(-c2ccccc2)nn(CCCN2[C@@H]3CC[C@H]2C[C@@H](OCc2ccccc2F)C3)c1=O` [Example 57, (Endo)-2-{3-[3-(2-fluorobenzyloxy)-8-azabicyclo[3.2.1]oct-8-yl]propyl}-4-methyl-5-phenyl-2,4-dihydro[1,2,4]triazol-3-one oxalate] gave an IC50 of 0.08 µM. `Cc1nc(=O)n(C[C@@H](F)CN2[C@@H]3CC[C@H]2C[C@@H](OCc2cccc(F)c2)C3)c(=O)n1C` [Example 13, (Endo)-3-{(S)-2-fluoro-3-[3-(3-fluorobenzyloxy)-8-azabicyclo[3.2.1]oct-8-yl]propyl}-1,6-dimethyl-1H-[1,3,5]triazine-2,4-dione oxalate] gave an IC50 of 10 µM. `O=c1nc2n(c(=O)n1C[C@H](F)CN1[C@@H]3CC[C@H]1C[C@@H](OCc1ccc(F)cc1)C3)CCC2` [Example 128, (Endo)-3-{(R)-2-fluoro-3-[3-(4-fluorobenzyloxy)-8-azabicyclo[3.2.1]oct-8-yl]propyl}-7,8-dihydro-6H-pyrrolo[1,2-a][1,3,5]triazine-2,4-dione oxalate] showed an IC50 of 3.7 µM. `O=c1n(CC[C@H](O)CN2[C@@H]3CC[C@H]2C[C@@H](OCc2ccccc2F)C3)nc2ccccn12` [Example 155, (Endo)-2-{(S)-4-[3-(2-fluorobenzyloxy)-8-azabicyclo[3.2.1]oct-8-yl]-3-hydroxybutyl}-2H-[1,2,4]triazolo[4,3-a]pyridin-3-one] gave an IC50 of 1.3 µM. `Cc1nn(C[C@H](F)CN2[C@@H]3CC[C@H]2C[C@@H](OCc2cccc(F)c2)C3)c(=O)n1-c1ccn(C)n1` [Example 23, (Endo)-2-{(R)-2-fluoro-3-[3-(3-fluorobenzyloxy)-8-azabicyclo[3.2.1]oct-8-yl]propyl}-5-methyl-4-(1-methyl-1H-pyrazol-3-yl)-2,4-dihydro[1,2,4]triazol-3-one oxalate] gave an IC50 of 5.3 µM. Work on `Cc1cccc(COC2CC3CCC(C2)N3CC(F)Cn2c(=O)nc(C)n(C)c2=O)c1` (stereo not drawn) [Example 21, (Endo)-3-{2-fluoro-3-[3-(3-methylbenzyloxy)-8-azabicyclo[3.2.1]oct-8-yl]-propyl}-1,6-dimethyl-1H-[1,3,5]triazine-2,4-dione oxalate] yielded an IC50 of 4 µM. Work on `Cn1c(-c2cocn2)nn(CC(O)CN2[C@@H]3CC[C@H]2C[C@@H](OCc2ccccc2CF)C3)c1=O` (stereo partly drawn) [Example 55, (Endo)-2-{3-[3-(2-fluoromethylbenzyloxy)-8-azabicyclo[3.2.1]oct-8-yl]-2-hydroxy-propyl}-4-methyl-5-oxazol-4-yl-2,4-dihydro[1,2,4]triazol-3-one] yielded an IC50 of 12 µM. Work on `Cc1nn2c(=O)n(C[C@H](F)CN3[C@@H]4CC[C@H]3C[C@@H](OCc3cccc(F)c3)C4)c(=O)nc2n1C` [Example 101, (Endo)-6-{(R)-2-fluoro-3-[3-(3-fluorobenzyloxy)-8-azabicyclo[3.2.1]oct-8-yl]propyl}-2,3-dimethyl-3H-[1,2,4]triazole[1,5-a][1,3,5]triazine-5,7-dione] yielded an IC50 of 2.7 µM. In the case of `Cc1nn(C[C@@H](F)CN2[C@@H]3CC[C@H]2C[C@@H](OCc2ccc(F)cc2)C3)c(=O)n1-c1ccn(C)n1` [Example 24, (Endo)-2-{(S)-2-fluoro-3-[3-(4-fluorobenzyloxy)-8-azabicyclo[3.2.1]oct-8-yl]propyl}-5-methyl-4-(1-methyl-1H-pyrazol-3-yl)-2,4-dihydro[1,2,4]triazol-3-one oxalate], the IC50 is reported as 3.7 µM. For `Cc1nn(C[C@H](O)CN2[C@@H]3CC[C@H]2C[C@@H](OCc2ccc(F)cc2)C3)c(=O)n1-c1cnn(C)c1` [Example 34, (Endo)-2-{(R)-3-[3-(4-fluorobenzyloxy)-8-azabicyclo[3.2.1]oct-8-yl]-2-hydroxypropyl}-5-methyl-4-(1-methyl-1H-pyrazol-4-yl)-2,4-dihydro[1,2,4]triazol-3-one], the IC50 was 16 µM. In the case of `Cc1c(C)n(C)c(=O)n(CCCN2[C@@H]3CC[C@H]2C[C@@H](OCc2ccccc2F)C3)c1=O` [Example 189, (Endo)-3-{3-[3-(2-fluorobenzyloxy)-8-azabicyclo[3.2.1]oct-8-yl]propyl}-1,5,6-trimethyl-1H-pyrimidine-2,4-dione oxalate], the IC50 is reported as 3.8 µM.

Same assay, conditions: 30 μM; reference for complete inhibition in the equation
In the case of `CNCCCN1c2ccccc2CCc2ccccc21` [desipramine, reference compound], the Nav1.8 channel inhibition is reported as “completely inhibits”.
